From patent US20260015350A1, “AZAQUINAZOLINE PAN-KRAS INHIBITORS” (Mirati Therapeutics, Inc., priority 2022, published 2026)

Tests used:
KRas^WT = target: T1, KRas^WT (Homo sapiens, UniProt P01116); assay: KRas binding assay (TR-FRET tracer displacement), KRas WT; settings: for IC50: TR-FRET tracer displacement, KRas WT; for inhibition at 0.01 µM: single point, 10 nM compound, TR-FRET
T1 construct: Biotinylated KRas (corresponding to amino acids 1-169, produced at Accelegan Inc.); biotin (biotinylated); purchased Accelegan Inc
T1 sequence (P01116 1-169 isoform P01116-2): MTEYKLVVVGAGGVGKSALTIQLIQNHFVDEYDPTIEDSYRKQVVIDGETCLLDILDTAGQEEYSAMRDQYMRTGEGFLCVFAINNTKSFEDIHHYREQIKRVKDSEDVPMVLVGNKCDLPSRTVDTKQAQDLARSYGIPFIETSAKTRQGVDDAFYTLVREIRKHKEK

KRas^G12A = target: T2, KRas^G12A (Homo sapiens, UniProt P01116, G12A); assay: KRas binding assay (TR-FRET tracer displacement), KRas G12A; settings: for IC50: TR-FRET tracer displacement, KRas G12A; for inhibition at 0.01 µM: single point, 10 nM compound, TR-FRET
T2 construct: Biotinylated KRas (corresponding to amino acids 1-169, produced at Accelegan Inc.); biotin (biotinylated); purchased Accelegan Inc
T2 sequence (P01116 1-169 isoform P01116-2 G12A): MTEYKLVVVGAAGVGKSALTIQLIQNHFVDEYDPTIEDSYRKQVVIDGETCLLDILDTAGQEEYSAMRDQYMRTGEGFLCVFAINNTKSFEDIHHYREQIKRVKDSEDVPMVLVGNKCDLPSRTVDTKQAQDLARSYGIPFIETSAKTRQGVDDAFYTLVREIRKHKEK

KRas^G12C = target: T3, KRas^G12C (Homo sapiens, UniProt P01116, G12C); assay: KRas binding assay (TR-FRET tracer displacement), KRas G12C; settings: for IC50: TR-FRET tracer displacement, KRas G12C; for inhibition at 0.01 µM: single point, 10 nM compound, TR-FRET
T3 construct: Biotinylated KRas (corresponding to amino acids 1-169, produced at Accelegan Inc.); biotin (biotinylated); purchased Accelegan Inc
T3 sequence (P01116 1-169 isoform P01116-2 G12C): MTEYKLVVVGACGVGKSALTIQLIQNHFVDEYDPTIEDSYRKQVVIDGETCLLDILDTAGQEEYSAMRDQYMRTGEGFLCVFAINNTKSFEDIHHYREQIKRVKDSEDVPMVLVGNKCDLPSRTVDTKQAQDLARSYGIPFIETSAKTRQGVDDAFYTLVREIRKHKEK

KRas^G12D = target: T4, KRas^G12D (Homo sapiens, UniProt P01116, G12D); assay: KRas binding assay (TR-FRET tracer displacement), KRas G12D
T4 construct: Biotinylated KRas (corresponding to amino acids 1-169, produced at Accelegan Inc.); biotin (biotinylated); purchased Accelegan Inc
T4 sequence (P01116 1-169 isoform P01116-2 G12D): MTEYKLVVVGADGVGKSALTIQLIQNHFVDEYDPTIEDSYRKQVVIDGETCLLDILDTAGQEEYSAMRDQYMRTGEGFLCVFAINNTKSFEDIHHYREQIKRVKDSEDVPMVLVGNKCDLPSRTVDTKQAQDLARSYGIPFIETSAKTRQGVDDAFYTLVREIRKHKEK

KRas^G12R = target: T5, KRas^G12R (Homo sapiens, UniProt P01116, G12R); assay: KRas binding assay (TR-FRET tracer displacement), KRas G12R
T5 construct: Biotinylated KRas (corresponding to amino acids 1-169, produced at Accelegan Inc.); biotin (biotinylated); purchased Accelegan Inc
T5 sequence (P01116 1-169 isoform P01116-2 G12R): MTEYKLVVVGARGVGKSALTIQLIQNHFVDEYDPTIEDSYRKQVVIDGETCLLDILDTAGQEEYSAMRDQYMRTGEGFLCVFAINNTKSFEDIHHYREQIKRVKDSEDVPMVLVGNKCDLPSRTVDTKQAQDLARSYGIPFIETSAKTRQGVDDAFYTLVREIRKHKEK

KRas^G12S = target: T6, KRas^G12S (Homo sapiens, UniProt P01116, G12S); assay: KRas binding assay (TR-FRET tracer displacement), KRas G12S; settings: for IC50: TR-FRET tracer displacement, KRas G12S; for inhibition at 0.01 µM: single point, 10 nM compound, TR-FRET
T6 construct: Biotinylated KRas (corresponding to amino acids 1-169, produced at Accelegan Inc.); biotin (biotinylated); purchased Accelegan Inc
T6 sequence (P01116 1-169 isoform P01116-2 G12S): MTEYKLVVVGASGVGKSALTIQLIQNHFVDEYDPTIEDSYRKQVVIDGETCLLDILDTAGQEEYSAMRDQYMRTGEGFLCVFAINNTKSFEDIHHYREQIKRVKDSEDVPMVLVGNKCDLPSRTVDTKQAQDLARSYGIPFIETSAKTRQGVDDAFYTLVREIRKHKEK

KRas^G12V = target: T7, KRas^G12V (Homo sapiens, UniProt P01116, G12V); assay: KRas binding assay (TR-FRET tracer displacement), KRas G12V
T7 construct: Biotinylated KRas (corresponding to amino acids 1-169, produced at Accelegan Inc.); biotin (biotinylated); purchased Accelegan Inc
T7 sequence (P01116 1-169 isoform P01116-2 G12V): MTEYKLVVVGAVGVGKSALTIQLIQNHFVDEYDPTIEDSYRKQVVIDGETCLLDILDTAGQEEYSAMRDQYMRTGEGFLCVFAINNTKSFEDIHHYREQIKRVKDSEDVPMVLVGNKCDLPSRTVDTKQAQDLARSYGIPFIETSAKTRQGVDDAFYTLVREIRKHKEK

KRas^G13D = target: T8, KRas^G13D (Homo sapiens, UniProt P01116, G13D); assay: KRas binding assay (TR-FRET tracer displacement), KRas G13D; settings: for IC50: TR-FRET tracer displacement, KRas G13D; for inhibition at 0.01 µM: single point, 10 nM compound, TR-FRET
T8 construct: Biotinylated KRas (corresponding to amino acids 1-169, produced at Accelegan Inc.); biotin (biotinylated); purchased Accelegan Inc
T8 sequence (P01116 1-169 isoform P01116-2 G13D): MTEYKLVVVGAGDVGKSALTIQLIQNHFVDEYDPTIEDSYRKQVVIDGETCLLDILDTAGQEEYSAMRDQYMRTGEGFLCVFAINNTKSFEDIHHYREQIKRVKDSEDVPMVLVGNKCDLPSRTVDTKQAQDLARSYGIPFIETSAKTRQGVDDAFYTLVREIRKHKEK

KRas^Q61H = target: T9, KRas^Q61H (Homo sapiens, UniProt P01116, Q61H); assay: KRas binding assay (TR-FRET tracer displacement), KRas Q61H; settings: for IC50: TR-FRET tracer displacement, KRas Q61H; for inhibition at 0.01 µM: single point, 10 nM compound, TR-FRET
T9 construct: Biotinylated KRas (corresponding to amino acids 1-169, produced at Accelegan Inc.); biotin (biotinylated); purchased Accelegan Inc
T9 sequence (P01116 1-169 isoform P01116-2 Q61H): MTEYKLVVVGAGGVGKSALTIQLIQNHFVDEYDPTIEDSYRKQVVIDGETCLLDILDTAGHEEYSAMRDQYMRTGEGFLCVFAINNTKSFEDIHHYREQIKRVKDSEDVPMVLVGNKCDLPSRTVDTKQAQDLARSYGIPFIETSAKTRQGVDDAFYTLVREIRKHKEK

[1] = system: KRas-mediated phosphorylation of ERK in AsPC-1 cells; assay: Inhibition of KRas-mediated phosphorylation of ERK (Cisbio HTRF pERK), AsPC-1 cells; format: cell-based; settings: Homo sapiens; for IC50: ASPC1, AsPC-1 cells, HTRF pERK; for inhibition at 0.1 µM: ASPC1, 3 h, single point, 100 nM compound, 3 hrs, AsPC-1 cells
Summary of the method: (§1)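 Compound treatment lasts 3 hrs on 6,000 seeded cells, testing 10 doses from a 10 uM top concentration in 3-fold decrements at 0.8% final DMSO. Trametinib at 0.2 uM defines the Min signal. Detection is HTRF on cold-lysed cell extracts.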

[2] = system: KRas-mediated phosphorylation of ERK in H727 cells; assay: Inhibition of KRas-mediated phosphorylation of ERK (Cisbio HTRF pERK), H727 cells; format: cell-based; settings: Homo sapiens; for IC50: NCI-H727, H727 cells, HTRF pERK; for inhibition at 0.1 µM: NCI-H727, 3 h, single point, 100 nM compound, 3 hrs, H727 cells
Summary of the method: as §1

[3] = system: KRas-mediated phosphorylation of ERK in A549 cells; assay: Inhibition of KRas-mediated phosphorylation of ERK (Cisbio HTRF pERK), A549 cells; format: cell-based; settings: Homo sapiens, A549, 3 h, single point, 100 nM compound, 3 hrs
Summary of the method: (§2)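 Using 6,000 cells per well, compounds are applied for 3 hrs and cells then lysed at 4° C with shaking for 40 mins. Phospho-ERK is measured by HTRF after 2 hrs of lysate incubation with the d2/Cryptate antibody mixture.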

[4] = system: KRas-mediated phosphorylation of ERK in H460 cells; assay: Inhibition of KRas-mediated phosphorylation of ERK (Cisbio HTRF pERK), H460 cells; format: cell-based; settings: Homo sapiens, NCI-H460, 3 h, single point, 100 nM compound, 3 hrs
Summary of the method: as §1

[5] = system: KRas-mediated phosphorylation of ERK in HCT116 cells; assay: Inhibition of KRas-mediated phosphorylation of ERK (Cisbio HTRF pERK), HCT116 cells; format: cell-based; settings: Homo sapiens, HCT-116, 3 h, single point, 100 nM compound, 3 hrs
Summary of the method: as §2

[6] = system: KRas-mediated phosphorylation of ERK in H358 cells; assay: Inhibition of KRas-mediated phosphorylation of ERK (Cisbio HTRF pERK), H358 cells; format: cell-based; settings: Homo sapiens, NCI-H358, 3 h, single point, 100 nM compound, 3 hrs
Summary of the method: as §1

Compound	IC50 (KRas^WT) [nM]	IC50 (KRas^G12A) [nM]	IC50 (KRas^G12C) [nM]	IC50 (KRas^G12D) [nM]	IC50 (KRas^G12R) [nM]	IC50 (KRas^G12S) [nM]	IC50 (KRas^G12V) [nM]	IC50 (KRas^G13D) [nM]	IC50 (KRas^Q61H) [nM]	IC50 [1] [nM]	IC50 [2] [nM]	inhibition at 0.1 µM [3] [%]	inhibition at 0.1 µM [4] [%]	inhibition at 0.1 µM [5] [%]	inhibition at 0.1 µM [6] [%]	further results
Oc1cc(-c2ncc3c(N4C[C@@H]5C[C@H](C4)[C@H](O)C5)nc(OC[C@@]45CCCN4C[C@H](F)C5)nc3c2F)c2ccc(F)cc2c1 [Example 749, (1R,5R,6R)-3-(8-fluoro-7-(6-fluoro-3-hydroxynaphthalen-1-yl)-2-(((2R,7aS)-2-fluorohexahydro-1H-pyrrolizin-7a-yl)methoxy)pyrido[4,3-d]pyrimidin-4-yl)-3-azabicyclo[3.2.1]octan-6-ol]	34	25	29	54	16	19	19	37	44	1400	246	15	-3	20	-5	
CN(C)C(=O)OC[C@@H]1CC[C@@]2(COc3nc(N4CCC[C@@](C)(O)C4)c4cnc(-c5cc(O)cc6ccc(F)c(F)c56)c(F)c4n3)CCCN12 [Example 548, ((3S,7aR)-7a-(((7-(7,8-difluoro-3-hydroxynaphthalen-1-yl)-8-fluoro-4-((R)-3-hydroxy-3-methylpiperidin-1-yl)pyrido[4,3-d]pyrimidin-2-yl)oxy)methyl)hexahydro-1H-pyrrolizin-3-yl)methyl dimethylcarbamate]				2	5		3			55	88	38	38	29	59	inhibition at 0.01 µM (KRas^WT): 79%; inhibition at 0.01 µM (KRas^G12A): 79%; inhibition at 0.01 µM (KRas^G12C): 84%; inhibition at 0.01 µM (KRas^G12S): 79%; inhibition at 0.01 µM (KRas^G13D): 86%; inhibition at 0.01 µM (KRas^Q61H): 79%
Cc1cccc2c(-c3ncc4c(N5C[C@@H]6C[C@H](C5)[C@H](O)C6)nc(OC[C@@]56CCCN5C[C@H](F)C6)nc4c3F)cc(O)cc12 [Example 747, (1R,5R,6R)-3-(8-fluoro-2-(((2R,7aS)-2-fluorohexahydro-1H-pyrrolizin-7a-yl)methoxy)-7-(3-hydroxy-5-methylnaphthalen-1-yl)pyrido[4,3-d]pyrimidin-4-yl)-3-azabicyclo[3.2.1]octan-6-ol]	107	36	107	272	76	61	67	94	180	3850	1260	4	-6	5	-6	
Oc1cc(-c2ncc3c(N4C[C@@H]5C[C@H](C4)[C@H](O)C5)nc(OC[C@@]45CCCN4C[C@H](F)C5)nc3c2F)c2cccc(F)c2c1 [Example 748, (1R,5R,6R)-3-(8-fluoro-7-(5-fluoro-3-hydroxynaphthalen-1-yl)-2-(((2R,7aS)-2-fluorohexahydro-1H-pyrrolizin-7a-yl)methoxy)pyrido[4,3-d]pyrimidin-4-yl)-3-azabicyclo[3.2.1]octan-6-ol]	20	16	18	32	11	12	12	21	26	788	275	-7	-6	21	5	
Oc1cc(-c2ncc3c(N4C[C@@H]5C[C@H](C4)[C@H](O)C5)nc(OC[C@@]45CCCN4C[C@H](F)C5)nc3c2F)c2ccc(Cl)cc2c1 [Example 763, (1R,5R,6R)-3-(7-(6-chloro-3-hydroxynaphthalen-1-yl)-8-fluoro-2-(((2R,7aS)-2-fluorohexahydro-1H-pyrrolizin-7a-yl)methoxy)pyrido[4,3-d]pyrimidin-4-yl)-3-azabicyclo[3.2.1]octan-6-ol]	36	25	33	70	18	20	23	36	45	1250	498	-11	13	5	-25	
C#Cc1c(F)ccc2cc(O)cc(-c3ncc4c(N5CCC[C@@](C)(O)C5)nc(OCC5(CN6CCCC6)CC5)nc4c3F)c12 [Example 752, (R)-1-(7-(8-ethynyl-7-fluoro-3-hydroxynaphthalen-1-yl)-8-fluoro-2-((1-(pyrrolidin-1-ylmethyl)cyclopropyl)methoxy)pyrido[4,3-d]pyrimidin-4-yl)-3-methylpiperidin-3-ol]				< 2	< 2		< 2			55	53	31	44	32	76	inhibition at 0.01 µM (KRas^WT): 97%; inhibition at 0.01 µM (KRas^G12A): 96%; inhibition at 0.01 µM (KRas^G12C): 99%; inhibition at 0.01 µM (KRas^G12S): 97%; inhibition at 0.01 µM (KRas^G13D): 98%; inhibition at 0.01 µM (KRas^Q61H): 99%; inhibition at 0.1 µM [1]: 27%; inhibition at 0.1 µM [2]: 31%
Oc1cc(-c2ncc3c(N4C[C@@H]5C[C@H](C4)[C@H](O)C5)nc(OC[C@@]45CCCN4C[C@H](F)C5)nc3c2F)c2ccccc2c1F [Example 750, (1R,5R,6R)-3-(8-fluoro-7-(4-fluoro-3-hydroxynaphthalen-1-yl)-2-(((2R,7aS)-2-fluorotetrahydro-1H-pyrrolizin-7a(5H)-yl)methoxy)pyrido[4,3-d]pyrimidin-4-yl)-3-azabicyclo[3.2.1]octan-6-ol]	84	63	74	98	42	43	29	74	184	1900	1680	-1	16	2	15	inhibition at 0.1 µM [1]: -1%; inhibition at 0.1 µM [2]: 1%
CCc1cccc2cc3[nH]ncc3c(-c3ncc4c(N5CCCC6(CNS(=O)(=O)N6)C5)nc(OC[C@@]56CCCN5C[C@H](F)C6)nc4c3F)c12 (stereo partly drawn) [Example 772, 7-(7-(5-ethyl-1H-benzo[f]indazol-4-yl)-8-fluoro-2-(((2R,7aS)-2-fluorohexahydro-1H-pyrrolizin-7a-yl)methoxy)pyrido[4,3-d]pyrimidin-4-yl)-2-thia-1,3,7-triazaspiro[4.5]decane 2,2-dioxide]	4	5	7	7	12	5	5	4	3	2230	2670	22	19	3	-4	
